What was measured:
CGAS = CGAS whole blood cytokine release assay (384-well, BacMam stimulation, IP-10 by cytometric bead array); format: cell-based; settings: Homo sapiens, 6 h; read-out: hWB pXC50 (converted)
In short: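 Heparinised human donor whole blood mixed with serially diluted compound plus Null BacMam stimulus, incubated 6 h at 37° C, 5% CO2. Supernatant IP-10 quantified by cytometric bead array on flow cytometer (488 nm excitation, 585/40 nm emission); inhibition of IP-10 calculated.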

human CGAS (157-522) = human CGAS (157-522) (Homo sapiens, UniProt Q8N884); assay: biochemical;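 also: biochemical enzyme reaction, 2′3′-cGAMP product measured by RapidFire mass spectrometry (MRM) normalised to c-di-UMP internal standard, inhibition of product formation relative to high and low control wells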
Sequence of human CGAS (157-522) (Q8N884 157-522): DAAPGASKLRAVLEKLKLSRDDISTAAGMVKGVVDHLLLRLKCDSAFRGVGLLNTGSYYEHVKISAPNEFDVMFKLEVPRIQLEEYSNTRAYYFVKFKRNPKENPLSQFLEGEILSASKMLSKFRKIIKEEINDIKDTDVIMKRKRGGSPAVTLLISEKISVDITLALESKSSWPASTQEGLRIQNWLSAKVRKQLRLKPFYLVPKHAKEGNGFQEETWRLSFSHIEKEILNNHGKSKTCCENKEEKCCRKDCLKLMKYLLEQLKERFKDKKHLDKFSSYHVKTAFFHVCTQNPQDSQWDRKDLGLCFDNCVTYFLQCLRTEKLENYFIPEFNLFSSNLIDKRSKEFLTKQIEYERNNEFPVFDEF
Description: Compounds were serially diluted 2, 3, or 4-fold in neat DMSO to generate 11-point dose response curves and then 250 nL compound or DMSO solution was transferred to Greiner 384-well V-bottom assay plates (Catalog #781280) using an Echo acoustic dispenser (Labcyte). A solution of 150 μM ATP, 150 μM GTP, 20 μM pppGpA (GTP-2′5′-AMP, custom synthesis from ChemGenes), and 10 μg/mL sheared salmon sperm DNA (Sigma, Catalog #D1626) in assay buffer (20 mM Trizma, pH 7.5, 10 mM magnesium chloride, 0.3 mM CHAPS, and 0.01% (w/v) bovine serum albumin) was added to columns 1-17, 19-24 of the plate at 12.5 μL/well using a Combi liquid handler (ThermoFisher). A 12.5 μL/well low control solution containing 150 μM ATP, 150 μM GTP, 20 μM pppGpA in assay buffer was added to column 18 using the Combi. A 12.5 μL/well solution of 10-100 nM human CGAS (157-522) in assay buffer was then added to all wells of the plate using the Combi. […] Reactions were quenched by added 50 μL/well of 0.5% (v/v) trifluoroacetic acid (TFA) in mass spectrometry grade deionized water containing 5 μM cyclic-di-UMP (ci-di-UMP; Invivogen Catalog #tlrl-cdu) as the internal standard (IS). Plates were centrifuged for 1 min and then quenched reactions were analyzed using a RF-MS 300 system operating in a Multiple Reaction Monitoring (MRM) detection mode.
Samples (10 μL injection volume) were passed over a silica C18/type C solid phase extraction (SPE) cartridge for analyte (2′3′-cyclic guanosine monophosphate adenosine monophosphate (2′3′-cGAMP), product of biochemical reaction)/pppGpA/c-di-UMP IS adsorption. Adsorbed samples were desalted for 3000 ms using a 100% water eluent A/desalting solution. Afterwards, desalted samples were eluted using a 0.5% TFA in 20%/80% acetonitrile/water eluent B/elution solution directly into either a Sciex 4000, 5000 or 5500 triple quadrupole mass spectrometer (QQQ-MS) for MRM analyte/IS detection. QQQ-MS detection conditions were as follow: scan type: MRM; curtain (CUR) gas: 30 psi; nebulizer (GS1) gas: 50 psi; drying (GS2) gas: 60 psi; collisionally activated dissociation (CAD) gas: 12 relative setting; precursor ion (Q1) masses: 2′3′-cGAMP: m/z 675.1 Da/pppGpA: m/z 853.0 Da/c-di-UMP: m/z 613.1 Da; fragment ion (Q3) masses: 2′3′-cGAMP: m/z 524.1 Da/pppGpA: m/z 702.0 Da/c-di-UMP: 307.1 Da; declustering potentials (DPs): 2′3′-cGAMP: +81 V/pppGpA: +85 V/c-di-UMP: +85 V; entrance potential: +10 V (all analytes); collision energies (CEs): 2′3′-cGAMP: +33 V/pppGpA: +36 V/c-di-UMP: +35 V; collision cell exit potential (CXP): +10 V (all analytes); interface heater (Sciex 4000/5000 only): on; Q1 resolution: unit (all analyte); Q3 resolution: unit (all analytes). The area under the curve (AUC) for all analytes was obtained using the RapidFire Integrator software application to calculate AUC-2′3′-cGAMP/AUC-c-di-UMP intensity ratio. Percent product formation was calculated by comparison to column 6 (high control)/column 18 (low control) responses. The % product inhibition was calculated as follows:
[formula] where A is the minimum response, B is the maximum response, C is the log10*XC50, D is the slope factor, and x is the log10 compound concentration [M] in ABASE XE.

| Compound | IC50 (CGAS) | IC50 (human CGAS (157-522)) |
| --- | --- | --- |
| Nc1ccn2c(-c3cnc[nH]3)c(-c3nc(C(F)(F)F)n[nH]3)nc2n1 [Example 107, 3-(1H-imidazol-5-yl)-2-[3-(trifluoromethyl)-1H-1,2,4-triazol-5-yl]imidazo[1,2-a]pyrimidin-7-amine] | 631 nM | 2.51 nM |
| COCc1cn2c(-c3cnc[nH]3)c(-c3nc(C(F)(F)F)n[nH]3)nc2nc1C(F)(F)F [Example 114, 5-[3-(1H-imidazol-5-yl)-6-(methoxymethyl)-7-(trifluoromethyl)imidazo[1,2-a]pyrimidin-2-yl]-3-(trifluoromethyl)-1H-1,2,4-triazole] | 1000 nM | 3.98 nM |
| CCOCc1cn2c(-c3cnc[nH]3)c(-c3nc(C(F)F)n[nH]3)nc2nc1C(F)(F)F [Example 117, 3-(difluoromethyl)-5-[6-(ethoxymethyl)-3-(1H-imidazol-5-yl)-7-(trifluoromethyl)imidazo[1,2-a]pyrimidin-2-yl]-1H-1,2,4-triazole] | 3160 nM | 6.31 nM |
| COCc1cn2c(-c3cnc[nH]3)c(-c3nc(C(F)F)n[nH]3)nc2nc1C(F)(F)F [Example 121, 3-(difluoromethyl)-5-[3-(1H-imidazol-5-yl)-6-(methoxymethyl)-7-(trifluoromethyl)imidazo[1,2-a]pyrimidin-2-yl]-1H-1,2,4-triazole] | 1580 nM | 7.94 nM |
| FC(F)(F)c1n[nH]c(-c2nc3ncc(COCC(F)(F)C(F)(F)C(F)(F)F)cn3c2-c2cnc[nH]2)n1 [Example 123, 5-{6-[(2,2,3,3,4,4,4-heptafluorobutoxy)methyl]-3-(1H-imidazol-5-yl)imidazo[1,2-a]pyrimidin-2-yl}-3-(trifluoromethyl)-1H-1,2,4-triazole] | 1260 nM | 6.31 nM |
| FC(F)(F)c1n[nH]c(-c2nc3ncc(COCC4CCOC4)cn3c2-c2cnc[nH]2)n1 (stereo not shown) [Example 126, 5-[3-(1H-imidazol-5-yl)-6-{[(oxolan-3-yl)methoxy]methyl}imidazo[1,2-a]pyrimidin-2-yl]-3-(trifluoromethyl)-1H-1,2,4-triazole] | 501 nM | 7.94 nM |
| COCC(C)COCc1cnc2nc(-c3nc(C(F)(F)F)n[nH]3)c(-c3cnc[nH]3)n2c1 (stereo not shown) [Example 127, 5-[3-(1H-imidazol-5-yl)-6-[(3-methoxy-2-methylpropoxy)methyl]imidazo[1,2-a]pyrimidin-2-yl]-3-(trifluoromethyl)-1H-1,2,4-triazole] | 251 nM | 7.94 nM |
| FC(F)(F)c1n[nH]c(-c2nc3nc4c(cn3c2-c2cnc[nH]2)CCC4)n1 [Example 133, 12-(1H-imidazol-5-yl)-11-[3-(trifluoromethyl)-1H-1,2,4-triazol-5-yl]-1,8,10-triazatricyclo[7.3.0.0^3,^7]dodeca-2,7,9,11-tetraene] | 200 nM | 3.16 nM |
| FC(F)(F)c1n[nH]c(-c2nc3nc4c(cn3c2-c2cnc[nH]2)CCCC4)n1 [Example 134, 5-[3-(1H-imidazol-5-yl)-6H,7H,8H,9H-imidazo[2,1-b]quinazolin-2-yl]-3-(trifluoromethyl)-1H-1,2,4-triazole] | 398 nM | 3.98 nM |
| FC(F)(F)c1n[nH]c(-c2nc3ncc(COCCC4CCOC4)cn3c2-c2cnc[nH]2)n1 (stereo not shown) [Example 139, 5-[3-(1H-imidazol-5-yl)-6-{[2-(oxolan-3-yl)ethoxy]methyl}imidazo[1,2-a]pyrimidin-2-yl]-3-(trifluoromethyl)-1H-1,2,4-triazole] | 398 nM | 7.94 nM |
| FC(F)(F)c1n[nH]c(-c2nc3ncc(COCCCC4CCCO4)cn3c2-c2cnc[nH]2)n1 (stereo not shown) [Example 140, 5-[3-(1H-imidazol-5-yl)-6-{[3-(oxolan-2-yl)propoxy]methyl}imidazo[1,2-a]pyrimidin-2-yl]-3-(trifluoromethyl)-1H-1,2,4-triazole] | 794 nM | 12.6 nM |
| FC(F)(F)c1n[nH]c(-c2nc3ncc(COCCC4CCCO4)cn3c2-c2cnc[nH]2)n1 (stereo not shown) [Example 141, 5-[3-(1H-imidazol-5-yl)-6-{[2-(oxolan-2-yl)ethoxy]methyl}imidazo[1,2-a]pyrimidin-2-yl]-3-(trifluoromethyl)-1H-1,2,4-triazole] | 316 nM | 3.98 nM |
| OCCCCCOCc1cnc2nc(-c3nc(C(F)(F)F)n[nH]3)c(-c3cnc[nH]3)n2c1 [Example 142, 5-{[3-(1H-imidazol-5-yl)-2-[3-(trifluoromethyl)-1H-1,2,4-triazol-5-yl]imidazo[1,2-a]pyrimidin-6-yl]methoxy}pentan-1-ol] | 794 nM | 3.98 nM |

Other lines, results leading:

| IC50 (CGAS) | IC50 (human CGAS (157-522)) | Compound |
| --- | --- | --- |
| 1260 nM | 5.01 nM | CC(C)(C)c1cnc2nc(-c3nc(C(F)(F)F)n[nH]3)c(-c3c[nH]cn3)n2c1 [Example 109, 5-[6-tert-butyl-3-(1H-imidazol-4-yl)imidazo[1,2-a]pyrimidin-2-yl]-3-(trifluoromethyl)-1H-1,2,4-triazole] |
| 398 nM | 50.1 nM | N#Cc1cnc2nc(-c3nc(C(F)(F)F)n[nH]3)c(-c3cnc[nH]3)n2c1 [Example 110, 3-(1H-imidazol-5-yl)-2-[3-(trifluoromethyl)-1H-1,2,4-triazol-5-yl]imidazo[1,2-a]pyrimidine-6-carbonitrile] |
| 398 nM | 3.98 nM | FC(F)(F)COCc1cnc2nc(-c3nc(C(F)(F)F)n[nH]3)c(-c3cnc[nH]3)n2c1 [Example 111, 5-[3-(1H-imidazol-5-yl)-6-[(2,2,2-trifluoroethoxy)methyl]imidazo[1,2-a]pyrimidin-2-yl]-3-(trifluoromethyl)-1H-1,2,4-triazole] |
| 631 nM | 12.6 nM | CC(NCc1ccn2c(-c3c[nH]cn3)c(-c3nc(C(F)(F)F)n[nH]3)nc2n1)C(F)(F)F (stereo not shown) [Example 118, {[3-(1H-imidazol-4-yl)-2-[3-(trifluoromethyl)-1H-1,2,4-triazol-5-yl]imidazo[1,2-a]pyrimidin-7-yl]methyl}(1,1,1-trifluoropropan-2-yl)amine] |
| 631 nM | 6.31 nM | FC(F)c1cnc2nc(-c3nc(C(F)(F)F)n[nH]3)c(-c3c[nH]cn3)n2c1 [Example 120, 5-[6-(difluoromethyl)-3-(1H-imidazol-4-yl)imidazo[1,2-a]pyrimidin-2-yl]-3-(trifluoromethyl)-1H-1,2,4-triazole] |
| 158 nM | 6.31 nM | N#Cc1ccn2c(-c3c[nH]cn3)c(-c3nc(C(F)(F)F)n[nH]3)nc2n1 [Example 124, 3-(1H-imidazol-4-yl)-2-[3-(trifluoromethyl)-1H-1,2,4-triazol-5-yl]imidazo[1,2-a]pyrimidine-7-carbonitrile] |
| 3160 nM | 15.8 nM | Fc1cn2c(-c3cnc[nH]3)c(-c3nc(C(F)(F)F)n[nH]3)nc2nc1C(F)(F)F [Example 125, 5-[6-fluoro-3-(1H-imidazol-5-yl)-7-(trifluoromethyl)imidazo[1,2-a]pyrimidin-2-yl]-3-(trifluoromethyl)-1H-1,2,4-triazole] |
| 3160 nM | 12.6 nM | FC(F)(F)c1n[nH]c(-c2nc3nc(C(F)(F)F)c(Cl)cn3c2-c2cnc[nH]2)n1 [Example 128, 5-[6-chloro-3-(1H-imidazol-5-yl)-7-(trifluoromethyl)imidazo[1,2-a]pyrimidin-2-yl]-3-(trifluoromethyl)-1H-1,2,4-triazole] |
| 316 nM | 7.94 nM | CCOCCOCc1cnc2nc(-c3nc(C(F)(F)F)n[nH]3)c(-c3cnc[nH]3)n2c1 [Example 129, 5-{6-[(2-ethoxyethoxy)methyl]-3-(1H-imidazol-5-yl)imidazo[1,2-a]pyrimidin-2-yl}-3-(trifluoromethyl)-1H-1,2,4-triazole] |
| 631 nM | 3.16 nM | FC(F)(F)c1n[nH]c(-c2nc3ncc(OCC4CCOC4)cn3c2-c2c[nH]cn2)n1 (stereo not shown) [Example 135, 5-[3-(1H-imidazol-4-yl)-6-[(oxolan-3-yl)methoxy]imidazo[1,2-a]pyrimidin-2-yl]-3-(trifluoromethyl)-1H-1,2,4-triazole] |
| 316 nM | 7.94 nM | FC(F)(F)c1n[nH]c(-c2nc3nc4c(cn3c2-c2c[nH]cn2)C2CCC(C4)O2)n1 (stereo not shown) [Example 136, 5-(1H-imidazol-4-yl)-6-[3-(trifluoromethyl)-1H-1,2,4-triazol-5-yl]-15-oxa-4,7,9-triazatetracyclo[10.2.1.0^2,^10.0^4,^8]pentadeca-2,5,7,9-tetraene] |
| 2510 nM | 3.98 nM | CC(COCc1cnc2nc(-c3nc(C(F)(F)F)n[nH]3)c(-c3c[nH]cn3)n2c1)n1ccnc1 (stereo not shown) [Example 143, 5-(6-{[2-(1H-imidazol-1-yl)propoxy]methyl}-3-(1H-imidazol-4-yl)imidazo[1,2-a]pyrimidin-2-yl)-3-(trifluoromethyl)-1H-1,2,4-triazole] |
| 1000 nM | 10 nM | FC(F)(F)c1n[nH]c(-c2nc3ncc(COCCC4COCCO4)cn3c2-c2c[nH]cn2)n1 (stereo not shown) [Example 145, 5-(6-{[2-(1,4-dioxan-2-yl)ethoxy]methyl}-3-(1H-imidazol-4-yl)imidazo[1,2-a]pyrimidin-2-yl)-3-(trifluoromethyl)-1H-1,2,4-triazole] |
| 2000 nM | 6.31 nM | FC(F)(F)c1n[nH]c(-c2nc3ncc(COCCn4cccn4)cn3c2-c2c[nH]cn2)n1 [Example 146, 5-[3-(1H-imidazol-4-yl)-6-{[2-(1H-pyrazol-1-yl)ethoxy]methyl}imidazo[1,2-a]pyrimidin-2-yl]-3-(trifluoromethyl)-1H-1,2,4-triazole] |
| 10000 nM | 10 nM | CC(=O)N1CCC(COCc2cnc3nc(-c4nc(C(F)(F)F)n[nH]4)c(-c4c[nH]cn4)n3c2)C1 (stereo not shown) [Example 149, 1-[3-({[3-(1H-imidazol-4-yl)-2-[3-(trifluoromethyl)-1H-1,2,4-triazol-5-yl]imidazo[1,2-a]pyrimidin-6-yl]methoxy}methyl)pyrrolidin-1-yl]ethan-1-one] |
| 5010 nM | 5.01 nM | CC(C)(COCc1cnc2nc(-c3nc(C(F)(F)F)n[nH]3)c(-c3c[nH]cn3)n2c1)n1ccnc1 [Example 150, 5-(6-{[2-(1H-imidazol-1-yl)-2-methylpropoxy]methyl}-3-(1H-imidazol-4-yl)imidazo[1,2-a]pyrimidin-2-yl)-3-(trifluoromethyl)-1H-1,2,4-triazole] |
